# Assay results as given in US20240118263A1, “TARGET FOR SCREENING ANTI-TUMOR DRUG, USE THEREOF AND SCREENING METHOD THEREFOR” (SHENYANG FUYANG PHARMACEUTICAL TECHNOLOGY CO., LTD., priority 2019, published 2024).
# What was measured:
# 786-O xenograft = test: 786-O subcutaneous xenograft model; assay type: in vivo, NSG mice; conditions: 35 mg/kg intraperitoneally daily, vs control
# Experimental: For subcutaneous xenografts, NSG mice (6-8 weeks old) from the NCI-Frederick animal facility and Jackson Lab (Bar Harbor, ME USA) were injected with 5×10^6 to 1×10^7 cells subcutaneously in the flank. One week later, the tumor-bearing mice were randomly assigned to different groups and made the tumor volume baseline equivalent and treated with normal saline or Zenomycin (35 mg/kg) everyday intraperitoneally. Tumors were measured using a caliper, and volume was calculated.
# SelH = SelH (Homo sapiens, UniProt Q8IZQ5, U44C); test: Surface plasmon resonance (SPR) detection of affinity between compounds and SelH; assay type: binding
# SelH, sequence (Q8IZQ5 with tags, fused parts or gaps U44C): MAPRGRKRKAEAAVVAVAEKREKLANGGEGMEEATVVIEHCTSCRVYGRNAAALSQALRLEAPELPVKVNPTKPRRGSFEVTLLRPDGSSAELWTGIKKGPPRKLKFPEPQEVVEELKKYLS
# Description: A Cys-deficient Escherichia coli expression system was adopted, which is an effective method to prepare selenoprotein found in recent years. Itsbasic principle is as follows: the characteristic that Cys transfer RNA (tRNACys) can bind to Sec was utilized, and a culture medium which is lack of cysteine (Cys) and rich in Selenium cysteine (Sec) was used for culturing a strain, so that Sec was successfully incorporated into newly expressed protein. According to existing literature reports, a human SelH gene sequence was obtained. Selenocysteine of the SelH is in the middle of the sequence and was terminated here during prokaryotic expression, so that the selenocysteine was mutated from a triple codon TGA of the selenocysteine into TGC, which was synthesized by the Sangon Bioengineering (Shanghai) Co., Ltd. In addition, the adopted SPP system was a single protein production system, and a principle of the SPP system was to induce MazF enzyme (mRNA interfering enzyme for cutting RNA on an ACA nucleotide sequence) to cause growth arrest of thalli. The enzyme can specifically recognize and cut the ACA sequence and prevent synthesis of other background proteins in bacteria. Therefore, when mRNA of the desired target protein was encoded, if the mRNA can be designed into a form lacking an ACA base triplet according to an amino acid encoding rule and was induced at 15° C. by using a pCold vector in cells expressing MazF, the mRNA was not enzymatically hydrolyzed, only a protein derived from the mRNA was generated, and there was little synthesis of other cell proteins.
# A pColdI-selH plasmid was transformed into BL21 (DE3) Cys-deficient Escherichia coli, so as to obtain a defective expression bacterium pColdI-selH. Sec was added during culture, making it become selenium-containing protein. The target protein was purified by using Ni^2+ column chelating chromatography, and impure protein was eluted by using an imidazole eluent of different concentrations to finally obtain the target protein. Soluble SelH protein was finally obtained, and SDS-PAGE (sodium dodecyl sulfate polyacrylamide gel electrophoresis) analysis was carried out.
# A surface plasmon resonance (SPR) method was adopted to detect the interaction condition of a small molecule and a protein, so that the screening of drugs targeting SelH was carried out.
# Purified SelH was diluted into a 50 μg/mL protein solution by using 10 mM sodium acetate with a pH value of 5.5, the purified SelH was fixed onto a CM5 chip by an amino coupling method by using Biacore 8K (GE Healthcard, Sweden), and an RU value was recorded.
# An isopentenyl or isovaleryl substituted coumarin compound, or a triterpenoid compound with an isopentenyl-like structure (the compound specifically includes aurapten, protopanaxadiol, iso-imperatorin, decursin, osthol, notoginsenoside R1 and shionon) was dissolved in 100% DMSO to be prepared into solutions containing 5% DMSO of different concentrations (0, 31.25, 62.5, 125, 250 and 500 μM) by using a 1.05×PBS-P^+ buffer solution (GE Healthcare, obtained by diluting 10×PBS-P^+).
# A single-cycle kinetics method was adopted, the 1.05×PBS-P^+ buffer solution containing 5% DMSO was used as a Running Buffer, different compounds of different concentrations flowed through the SelH fixed onto the chip, wherein the binding time was 120 s, and the change condition of the RU value was recorded. An equilibrium dissociation constant (KD) was calculated by using software in Biacore 8K so as to evaluate the binding affinity between the protein and the compounds. The SPR detection result of the affinity between compounds and SelH in Embodiment 2 of the present disclosure is as shown in FIG. 1A-G, and the result statistics is as shown in Table 1.
# (1) Screening of small molecule drugs by taking SelH as a target A surface plasmon resonance (SPR) method was adopted to detect the interaction condition of a small molecule and a protein, so that the screening of drugs targeting SelH was carried out. […]
# SELH (Sec44→Cys44) = SELH (Sec44→Cys44) (Homo sapiens, UniProt Q8IZQ5, U44C); test: SPR assay of ISP I with SELH synthesized in bacteria; assay type: binding
# SELH (Sec44→Cys44), sequence (Q8IZQ5 with tags, fused parts or gaps U44C): as above
# Description: Next, the inventors used a thermo-stability assay to confirm SELH was targeted by ISP I in LN229 and 786-O cell lines. The principle of the assay is based on altered protein thermal stabilization/destabilization due to ligand binding in living cells. […] (FIG. 11B and FIG. 12A). To verify further the specificity of ISP I's targeting of SELH, the inventors designed a surface plasmon resonance assay to assess the interaction of ISP I with SELH synthesized in bacteria.
# The affinities constant (KD) and kinetics (ka and kd) of ISP I binding to SELH (Sec44→Cys44) were assayed using Biacore 8K (GE Healthcare, Sweden), all at 25° C. […] Coupling conditions were determined by protein isoelectric points. […]
# To determine the binding affinity between ISP I and SELH (Sec44→Cys44), a series of ISP I dilutions was analyzed by single-cycle kinetics. […] The ISP I at various gradient concentrations and one zero concentration (running buffer) flowed over the immobilized SELH, with 120 s for binding, followed by disassociation for 120 s, and the obtained response units (RUs) were recorded. The RU values were collected, and the binding affinity data were calculated by kinetic models (1:1 interaction) within Biacore 8K Evaluation Software. The equilibrium dissociation constant (KD) was calculated to evaluate the ability of ISP I to interact with SELH.
smiles,measurement,setting,value
"CO[C@@H]1[C@@H](O[C@@H]2O[C@H](C)[C@@H](O[C@H]3C[C@@](C)(O)[C@@H](OC(=O)CC(C)C)[C@H](C)O3)[C@H](N(C)C)[C@H]2O)[C@@H](CC=O)C[C@@H](C)[C@@H](O[C@H]2CC[C@H](N(C)C)[C@@H](C)O2)/C=C/C=C/C[C@@H](C)OC(=O)C[C@H]1O [Isovalerylspiramycin I, 4″-isovalerylspiramycin I]","tumor size and weight, 786-O xenograft",786-O xenograft,significantly reduced tumor size and weight
same,Kd,"SelH; SPR Biacore 8K, single-cycle kinetics, Table 3, read-out: KD binding of macrolides and cyclic peptides to SelH",2480 nM
same,binding activity to the SelH (in words),SelH; ranking within the table's compounds,strongest
same,binding to SELH versus other proteins,SELH (Sec44→Cys44),tightly binds to SELH but does not bind with the other proteins
